Patent US20250144170A1, “METHOD FOR SUSTAINED DRUG DELIVERY FOR WOUND HEALING USING SILK HYDROGEL AND PRODUCT THEREOF” (AASYA HEALTH CARE PRIVATE LIMITED, priority 2022, published 2025)

Legend:
Type in all cases: cell-based
S. aureus = assay: Zone of inhibition on agar plates; conditions: Staphylococcus aureus, 37° C., 24 h, 25 mg hydrogel with 2 mg drug
Experimental: (§1) S. aureus and S. mutans were cultured in nutrient broth and spread onto agar plates. Hydrogels (25 mg SF doxy hydrogel having 5 mm diameter with 2 mg drug) were kept in each plate in the center on the media and for doxycycline, drug was added in the center where the media was punched out. Plates were incubated at 37° C. for 24 h. After the incubation period, radius of the zone of inhibition was measured in each plate.

S. mutans = assay: Zone of inhibition on agar plates; conditions: Streptococcus mutans, 37° C., 24 h, 25 mg hydrogel with 2 mg drug
Experimental: as §1

MTT assay cell viability = assay: MTT assay cell viability
Experimental: All the three cell lines (10,000 cells/200 μl medium) were cultured in their respective media in 96-well plates until they reached 60% confluency. Hydrogels and doxycycline were added in their respective wells. Plates were incubated at 37° C., 5% CO2, for 24 h. Media were removed and 200 μl of MTT solution (0.5 mg/ml prepared in phosphate buffer saline (PBS, Himedia, Catalog #TS1119)) was added to each well. Plate was incubated in dark at 37° C., 5% CO2 for 4h. MTT solution was then removed and 100 μl demthyl sulfoxide (DMSO) was added to each well to dissolve the formazan crystal. Absorbance was calculated at 570 nm in the multiplate reader. Percent of cell viability was calculated using Equation 2.
Where, O.D. is optical density at 570 nm.

Q: Which results are given for `C[C@H]1c2cccc(O)c2C(=O)C2=C(O)[C@]3(O)C(=O)C(C(N)=O)=C(O)[C@@H](N(C)C)[C@@H]3[C@@H](O)[C@@H]21` [doxycycline]?
A: zone of inhibition at 2000 µg/disc (S. aureus): 10 mm; zone of inhibition at 2000 µg/disc (S. mutans): 25 mm; viability at 24 h (MTT assay cell viability; human, HDFC cells): 40%; viability at 24 h (MTT assay cell viability; human, MG63 cells, MG63, 24 h): 40%; viability at 24 h (MTT assay cell viability; mouse, MC3T3 cells, MC3T3, 24 h): 40%
